According to publication PMC11843658 (Journal of Enzyme Inhibition and Medicinal Chemistry, 2025):

Tests used:
[1] = system: E-cadherin, N-cadherin, and Vimentin in HepG2 cells; test: Western blotting of epithelial–mesenchymal transition-related proteins; assay type: cell-based, Human
Description: (§1) Compound 14 at different concentrations (0, 0.5, 1, and 2 μM) was added into cancer cells solution and incubated for 48 h. Total protein was isolated from cells using RIPA buffer (Servicebio, Wuhan, China). An amount of […] of total protein were separated by sodium dodecyl sulphate polycrylamide gel electrophoresis and transferred to PVDF membranes. 5% non-fat milk (Servicebio, Wuhan, China) was used to block PVDF membranes and incubated with primary antibody for 12 h at 4 °C. Then, PVDF membranes were washed by TBST buffer (Servicebio, Wuhan, China) and incubated with secondary antibody at room temperature for 2 h. The enhanced chemiluminescence kit (Servicebio, Wuhan, China) was used to visualise immunoreactive bands. H3, GAPDH, Vimentin, N-cadherin, and E-cadherin as antibodies were purchased from Servicebio (Wuhan, China). Catalogue numbers of H3, GAPDH, Vimentin, N-cadherin, and E-cadherin as antibodies in Servicebio are GB11102, GB15004, GB11192, GB12135, and GB12868, respectively. H3K4me1 and H3K4me2 were obtained from Proteintech Group, Inc (Wuhan, China). Catalogue numbers of H3K4me1 and H3K4me2 as antibodies in Proteintech Group are 91289 and 39679, respectively.

LSD1 = LSD1 (Homo sapiens, UniProt O60341); test: Dialysis assay to evaluate the reversibility; assay type: biochemical; details: dialysis against HEPES buffer, GSK-LSD1 as irreversible reference
Description: A mixture of compound 14 and the recombinant LSD1 was incubated for 60 min at 37 °C. Then, the system was dialysed against 50 mmol/l HEPES buffer at 37 °C for 12 h. Finally, the HEPES buffer was replaced and the system was incubated for 12 h at 37 °C. In the dialysis experiment, an irreversible inhibitor GSK-LSD1 was purchased as the reference drug (Innochem, Beijing, China).

H3K4me1/2 = test: Western blotting of LSD1 substrates H3K4me1/2; assay type: cell-based; details: Western blotting, 0, 0.5, 1, and 2 μM, 48 h
Description: as §1

HepG2 cells = test: Xenograft study, HepG2 cells in nude mice; assay type: in vivo, BALB/c nude mice; details: 60 mg/kg by gavage every day for 21 days
Description: Tumorigenesis in nude mice could stimulate the growth process of human tumours in the body, and could be used to develop and evaluate the effectiveness and safety of anti-cancer candidates. Therefore, xenograft studies in nude mice were performed to evaluate anticancer effects of compound 14. Animals were treated according to the protocols established by the ethics committee of The Fourth Clinical College of Xinxiang Medical University. The in vivo experiments were carried out in accordance with the approved guidelines and approved by the ethics committee of The Fourth Clinical College of Xinxiang Medical University. The number of ethics approvals is XMU-2024–01-03. All authors have adhered to the ARRIVE guidelines (https://arriveguidelines.org/). BALB/c nude mice were purchased from Beijing Huafukang Biotechnology Co., LTD (Beijing, China), and fifteen mice were used in this study (aged 6–7 weeks and weighing 20–30 g). Before the animal experiments, all nude mice were given a week to adjust to the clean, hygienic and specific-pathogen-free environment. All nude mice were taken care of instainless steel cages with a constant temperature of 60% humidity, 25 °C and a 12/12 light/dark cycle. Nude mice were fed with refreshing water and nourishing food everyday.
Then, nude mice were anaesthetised with 2% isoflurane and 0.3 l/min of oxygen by the small animal anaesthesia machine (Beijing Yi Zejia Technology Co., LTD, Beijing, China). 3 × 10^5 human liver cancer HepG2 cells were subcutaneously injected in the right armpit of mice. Until the volume of tumours reached 60–100 mm^3, all mice were randomly divided into three groups and each group had five nude mice. An amount of 60 mg/kg of compound 14, 10 mg/kg of seclidemstat and water as the control group were given by gavage every day for 21 days. Weight of mice and tumour volume were measured every 3 d. All nude mice in this xenograft studies were performed euthanizing procedures using a carbon dioxide euthanasia chamber (Shanghai Yuyan Instruments Co., Ltd, Shanghai, China). The flow rate of carbon dioxide was adjusted at 20% of the volume of the euthanasia chamber per minute. Once nude mice were unconscious, the flow rate was increased to 100% of the euthanasia chamber volume per minute. Death was confirmed by immobility, non-breathing and pupil enlargement. Tumours form BALB/c nude mice were isolated and weighed.

HL-60 cells = test: CCK8 assay, HL-60 leukaemia cells; assay type: cell-based; details: Homo sapiens, 10 μM, 48 h, read-out: cell viability rate
Description: (§2) C42B, PC3, Caco-2, HepG2, MCF7, HL-60, 8505 C, OVCAR-3, and A549 were cultured to screen the broad-spectrum antiproliferative activity of compound 14. For above cell lines, three thousand cells per well were seeded in the 96-well plate and treated by compound 14 for 48 or 72 h at different concentrations (0, 5, 10, and 20 μM). In addition, HepG2, HEP3B, HUH6, and HUH7 were cultured to screen its antiproliferative activity against liver cancer cell lines. For these liver cancer cell lines, two thousand cells per well were seeded in the 96-well plate and treated by compound 14 for 48 h at different concentrations (0, 0.625, 1.25, 2.5, and 5 μM). Then, 10 μl of CCK8 was added into each well and cells were incubated in a humidified atmosphere of 5% CO2 at 37 °C for 4 h. The 96-well plate was measured with a microplate reader (Bio-Tek, San Diego, CA) at a wavelength of 450 nm to calculate IC50 values.

HEP3B cells = test: CCK8 assay, HEP3B liver cancer cells; assay type: cell-based; details: Homo sapiens, CCK8, 48 h, 0-5 μM, read-out: IC50, antiproliferative activity
Description: as §2

HUH6 cells = test: CCK8 assay, HUH6 liver cancer cells; assay type: cell-based; details: Homo sapiens, HuH-6, CCK8, 48 h, 0-5 μM, read-out: IC50, antiproliferative activity
Description: as §2

COc1ccc(CN(C(=O)CCN2C(=O)CCCC2=O)c2cc(OC)c(OC)c(OC)c2)cc1 [Compound 14, 3-(2,6-dioxopiperidin-1-yl)-N-(4-methoxybenzyl)-N-(3,4,5-trimethoxyphenyl)propanamide]
expression level of E-cadherin [1]: increases the expression level of E-cadherin | expression levels of N-cadherin and Vimentin [1]: decreases the expression levels of N-cadherin and Vimentin | reversibility of LSD1 inhibition (LSD1): inhibits LSD1 in a reversible manner | methylation levels of H3K4me1 and H3K4me2 (H3K4me1/2): increase the methylation levels of H3K4me1 and H3K4me2 | growth of subcutaneous tumours (HepG2 cells; nude mice bearing HepG2 cells): inhibited the growth of subcutaneous tumours | tumour growth inhibition rate (HepG2 cells; tumour weight, nude mice bearing HepG2 cells): 50.3% | tumour volume (HepG2 cells; vs control group): significantly lower than that in control group | tumour weight (HepG2 cells; vs control group): lower than that of control group | viability at 10 µM (HL-60 cells): 35.7% | IC50 (HEP3B cells): 2090 nM | IC50 (HUH6 cells): 1430 nM
